Test results from PubChem BioAssay AID184 (DTP/NCI, 2004).
Values joined by “and” are separate entries in the source; they are usually repeats but may differ in a detail not shown here. Identical values can stand only once. Inconclusive results and toxic doses are left out.

System: BALB/cJ mice, ADJ-PC-6 ip tumor, median survival T/C
Test: NCI In Vivo Anticancer Drug Screen. Data for tumor model ADJ-PC-6 (intraperitoneal) in BALB/cJ mice
Conditions: endpoint: median survival time, higher = longer survival
Protocol: The antitumor activity of compounds was measured in mice bearing transplantable tumors. Survival or tumor size were measured and the results are expressed as the measurement made in the treated group (T) divided by the measurement made in the vehicle treated control group (C). The tumor model used in this assay is ADJ-PC-6 (intraperitoneal) in BALB/cJ mice

## O=C(O)C1(C(=O)O)CCC1.[NH2-].[NH2-].[Pt+2]
dose: 10.8 mg/kg/injection, schedule: Q01DX009 (ip), vehicle: water
  T/C: 159 % of control
dose: 11.7 mg/kg/injection, schedule: Q04DX003 (ip), vehicle: water
  T/C: 106 % of control
dose: 12.5 mg/kg/injection, schedule: Q04DX003 (ip), vehicle: saline
  T/C: 108 % of control
dose: 18.0 mg/kg/injection, schedule: Q01DX009 (ip), vehicle: water
  T/C: 175 % of control
dose: 19.4 mg/kg/injection, schedule: Q04DX003 (ip), vehicle: water
  T/C: 106 % of control
dose: 25.0 mg/kg/injection, schedule: Q04DX003 (ip), vehicle: saline
  T/C: 114 % of control
dose: 32.4 mg/kg/injection, schedule: Q04DX003 (ip), vehicle: water
  T/C: 164 % of control
dose: 50.0 mg/kg/injection, schedule: Q04DX003 (ip), vehicle: saline
  T/C: 178 % of control
dose: 54.0 mg/kg/injection, schedule: Q04DX003 (ip), vehicle: water
  T/C: 170 % of control and 215 % of control
dose: 90.0 mg/kg/injection, schedule: Q04DX003 (ip), vehicle: water
  T/C: 103 % of control
dose: 100.0 mg/kg/injection, schedule: Q04DX003 (ip), vehicle: saline
  T/C: 217 % of control

## CN(C)CNC(=O)c1ccccc1
dose: 20.0 mg/kg/injection, schedule: Q01DX009 (ip), vehicle: water
  T/C: 102 % of control
dose: 40.0 mg/kg/injection, schedule: Q01DX009 (ip), vehicle: water
  T/C: 102 % of control
dose: 80.0 mg/kg/injection, schedule: Q01DX009 (ip), vehicle: water
  T/C: 115 % of control
dose: 160.0 mg/kg/injection, schedule: Q01DX009 (ip), vehicle: water
  T/C: 107 % of control

## CC(C)NC(=O)OCc1c(COC(=O)NC(C)C)c(-c2ccc(Cl)c(Cl)c2)n2c1CCC2
dose: 3.75 mg/kg/injection, schedule: Q01DX009 (ip), vehicle: saline with Tween-80
  T/C: 235 % of control
dose: 5.0 mg/kg/injection, schedule: Q01DX009 (ip), vehicle: saline with Tween-80
  T/C: 222 % of control
dose: 7.5 mg/kg/injection, schedule: Q01DX009 (ip), vehicle: saline with Tween-80
  T/C: 235 % of control
dose: 10.0 mg/kg/injection, schedule: Q01DX009 (ip), vehicle: saline with Tween-80
  T/C: 222 % of control
dose: 15.0 mg/kg/injection, schedule: Q01DX009 (ip), vehicle: saline with Tween-80
  T/C: 235 % of control
dose: 20.0 mg/kg/injection, schedule: Q01DX009 (ip), vehicle: saline with Tween-80
  T/C: 222 % of control
dose: 30.0 mg/kg/injection, schedule: Q01DX009 (ip), vehicle: saline with Tween-80
  T/C: 235 % of control
dose: 60.0 mg/kg/injection, schedule: Q01DX009 (ip), vehicle: saline with Tween-80
  T/C: 235 % of control

## CC1(C)N=C(N)N=C(N)N1c1ccc(CCCCc2ccc(S(=O)(=O)F)cc2Cl)c(Cl)c1
dose: 2.5 mg/kg/injection, schedule: Q01DX009 (ip), vehicle: saline
  T/C: 88 % of control
dose: 5.0 mg/kg/injection, schedule: Q01DX009 (ip), vehicle: saline
  T/C: 101 % of control
dose: 10.0 mg/kg/injection, schedule: Q01DX009 (ip), vehicle: saline
  T/C: 106 % of control
dose: 12.5 mg/kg/injection, schedule: Q04DX003 (ip), vehicle: Klucel (hydroxypropylcellulose) (HPC)
  T/C: 96 % of control
dose: 20.0 mg/kg/injection, schedule: Q01DX009 (ip), vehicle: saline
  T/C: 119 % of control
dose: 25.0 mg/kg/injection, schedule: Q04DX003 (ip), vehicle: Klucel (hydroxypropylcellulose) (HPC)
  T/C: 91 % of control
dose: 50.0 mg/kg/injection, schedule: Q04DX003 (ip), vehicle: Klucel (hydroxypropylcellulose) (HPC)
  T/C: 92 % of control
dose: 100.0 mg/kg/injection, schedule: Q04DX003 (ip), vehicle: Klucel (hydroxypropylcellulose) (HPC)
  T/C: 91 % of control
dose: 200.0 mg/kg/injection, schedule: Q04DX003 (ip), vehicle: Klucel (hydroxypropylcellulose) (HPC)
  T/C: 91 % of control

## O=NN(CCCl)C(=O)NCCCl
dose: 1.25 mg/kg/injection, schedule: Q04DX003 (ip), vehicle: saline + alcohol
  T/C: 106 % of control
dose: 5.0 mg/kg/injection, schedule: Q04DX003 (ip), vehicle: saline + alcohol
  T/C: 101 % of control and 178 % of control and 248 % of control
dose: 10.0 mg/kg/injection, schedule: Q04DX003 (ip), vehicle: saline + alcohol
  T/C: 150 % of control and 322 % of control
dose: 20.0 mg/kg/injection, schedule: Q04DX003 (ip), vehicle: saline + alcohol
  T/C: 222 % of control and 235 % of control and 355 % of control
dose: 40.0 mg/kg/injection, schedule: Q04DX003 (ip), vehicle: saline + alcohol
  T/C: 92 % of control and 235 % of control

## CC(=O)[C@]1(O)Cc2c(O)c3c(c(O)c2[C@@H](OC2CC(N)C(O)C(C)O2)C1)C(=O)c1c(O)cccc1C3=O (stereo not given in full)
dose: 0.13 mg/kg/injection, schedule: Q04DX003 (ip), vehicle: saline
  T/C: 164 % of control
dose: 0.25 mg/kg/injection, schedule: Q04DX003 (ip), vehicle: saline
  T/C: 168 % of control
dose: 0.5 mg/kg/injection, schedule: Q04DX003 (ip), vehicle: saline
  T/C: 178 % of control
